The test system of series [1] is T47D. Kind of series: MTT cell viability assay. It is filed as cell-based, human. Also noted: key to IC50 T47D: -: poor activity, cannot be unified. The settings on record: T47D breast cancer cells; for IC50: Homo sapiens. The protocol: (§1) The human colorectal cancer cell lines, HCT116 and LoVo, the breast cancer cell line, T47D, the hepatocellular carcinoma cell line, HepG2, the normal human liver cell line, HL7702, human umbilical vein endothelial cells (HUVECs), and the non-small cell lung cancer cell lines, A549, H1993, HCC827, H460, were purchased from the American Type Culture Collection (Manassas, VA, United States). Cell lines were cultured in the recommended RPMI-1640 medium (AE24464298, Hyclone, United States) and DMEM medium (AE29422278, Hyclone, United States) supplemented with 10% fetal bovine serum (FBS; JC63470, FB15015, Clark, United States) with 1% penicillin-streptomycin. Cells were maintained in an incubator at 37°C with 5% CO2 (HF90,Sanyo, Japan) and passaged every 48–72 h, after detaching with 0.25% trypsin (Sigma, United States). The compounds ZLDI-8 and NY-1 to -15 were synthesized in the laboratory of Dr. Huaiwei Ding in Shenyang Pharmaceutical University, and verified by high-performance liquid chromatography (purity >95%) for use in experiments (Supplementary Figure S1). Paclitaxel was purchased from MedChemExpress (HY-B0015, 99.97% purity, United States).
(§2) Cell viability was measured by the MTT assay. HCT116, HL7702, A549, H1993, HCC827, and H460 cells were dispensed into 96-well plates at a density of 1 × 10^5 cells/mL. After 24–48 h incubation, cells were treated with the compounds at different concentrations for the indicated periods. An assay kit (WLA073, Wanlei Co., Liaoning, China), was used according to the manufacturer’s instructions to measure LDH activity, The absorbance at 450 nm was measured with a microplate reader (Elx-800, Bio-Rad, China).
(§3) The preliminary antitumor activity of the series of ZLDI-8 derivatives, NY-1 to -15 was screened by the MTT cell viability assay. […] The antitumor activity of NY-2 on HCT116 cells was concentration- and time-dependent, and slightly better than that of the original compound, ZLDI-8.

Series [2] relates to HCT116. As to the kind of experiment: MTT cell viability assay. The class given is cell-based, human. On the set-up: key to IC50 HCT116: -: poor activity, cannot be unified. Particulars: for IC50: Homo sapiens, HCT-116, HCT116 colorectal cancer cells; for IC50 HCT116: HCT116 colorectal cancer cells. The protocol: as §1, §2, §3
(Formazan colour is commonly taken as a measure of viable cells.)

In series [3] the test system is LoVo. As to the kind of experiment: MTT cell viability assay. It is filed as cell-based, human. Also noted: key to IC50 LoVo: -: poor activity, cannot be unified. The settings on record: LoVo colorectal cancer cells; for IC50: Homo sapiens. The protocol:
as §1, §2, §3

For series [4], the system named is HepG2. As to the kind of experiment: MTT cell viability assay. Also noted: key to IC50 HepG2: -: poor activity, cannot be unified. It is filed as cell-based, human. Particulars: HepG2 hepatocellular carcinoma cells; for IC50: Homo sapiens. The procedure: as §1, §2, §3
Series [5] concerns A549 cells. Particulars: 28 days, NY-2 6 mg/kg, paclitaxel 1 mg/kg; for Lung metastasis of nude mice, number of mice (%): six mice per group, model 5 mice (83.3%). The procedure:
The experimental groups included the normal (no tumor cells, vehicle) group, the model (tumor cells, vehicle) group, NY-2-treated, and paclitaxel-treated groups, with six mice in each group. After 7 days for adaptation, 200 µL of A549 cells (2× 10^6 cells/mice) in serum-free medium were injected into the tail vein except for those in the normal group. Drug or vehicle administration via tail vein was started on the next day. The normal group and model group were given the same amount of sterile water containing 1% DMSO and 1% Tween as vehicle control. […] Injections were done every other day. The general conditions of the nude mice, with regard to activity and food ingestion, were observed every day, and their body weight was measured every other day.
KM mice were treated with ZLDI-8 or NY-2 by tail vein injection (6 mg/kg) for 7 days, then the mice were euthanized and liver and kidney tissues were removed and sectioned. For the experiment with BALB/c nude mice, the tail vein injections of NY-2 (6 mg/kg) were continued for 28 days, and the lungs, tumor, heart, liver, and kidney were removed. […] Sections for staining were dewaxed with xylene and then rehydrated, and hematoxylin-eosin staining was performed, after which the sections were again dehydrated in ethanol and cleared with xylene before being mounted on a slide, cover-slipped and examined microscopically. The remainder of the tumors and tissues was frozen in liquid nitrogen for other studies.

Each structure is given as a SMILES string. Read-outs that look alike come from different tables or passages of the source. Marks after values point to notes of the source that are not given here.

Data on 15 compounds can be found in paper PMC9884808, “Pharmacokinetics, tissue distribution, and antitumor activity of a novel compound, NY-2, in non-small cell lung cancer” (Frontiers in Pharmacology, 2023).

For orientation: IC50 means the point on the concentration scale where inhibition reaches its midpoint.

For `O=C1NC(=O)C(=Cc2cn(CCOc3cccc(C(F)(F)F)c3)c3ccccc23)C(=O)N1` [NY-9], in series [1], the “IC50 T47D” value was “-”. Further, the IC50 came to 35.3 µM in series [2] and 85.2 µM in series [4]. The “IC50 LoVo” value in series [3] is recorded as “-”.

`Cc1c(C=C2C(=O)NC(=S)NC2=O)c2ccccc2n1CCOc1cccc(C(F)(F)F)c1` [NY-7]: the half-maximal inhibitory concentration (IC50) in series [1] amounted to 21.8 µM; in series [2], 12.5 µM; in series [3], 20.6 µM; in series [4], 77.4 µM.

In the case of `O=C1NC(=O)C(=Cc2cn(CCOc3cccc(F)c3)c3ccccc23)C(=O)N1` [NY-6], the IC50 in series [1] came out at 53.7 µM; in series [2], 38.8 µM; in series [3], 28.7 µM; in series [4], 40.8 µM.

In the case of `CC(=O)O[C@H]1C(=O)[C@@]2(C)[C@H]([C@H](OC(=O)c3ccccc3)[C@]3(O)C[C@H](OC(=O)[C@H](O)[C@@H](NC(=O)c4ccccc4)c4ccccc4)C(C)=C1C3(C)C)[C@]1(OC(C)=O)CO[C@@H]1C[C@@H]2O` [Paclitaxel, reference compound], the “Body weight before dissection” value in series [5] (nude mice with A549 lung metastasis, tail vein every other day, n=6, mean ± SEM) stood at 22.72 ± 0.32 g. Besides, in series [5] (nude mice, n=6, mean ± SEM), the “Kidney as a proportion of body weight” value was 1.74 ± 0.03 10^-2, the “Liver as a proportion of body weight” value is recorded as 5.45 ± 0.20# 10^-2, the “Lung as a proportion of body weight” value is given as 0.64 ± 0.02 10^-2 and the “Quality of the heart” value was found to be 0.14 ± 0.01 g. Also, in series [5] (nude mice, n=6, mean ± SEM), the “Quality of the kidney” value amounted to 0.41 ± 0.01 g, the “Quality of the liver” value came to 1.29 ± 0.06 g and the “Quality of the lung” value is listed as 0.15 ± 0.01 g. For the same compound, in series [5] (nude mice), the “infiltration of A549 cells in the lung tissue (H&E)” value was “no infiltration of A549 cells in the lung tissue”. In addition, in series [5], the “Lung metastasis of nude mice, number of mice (%)” value is 0 (0). Also, the “Lung metastasis of nude mice, number of mice (%)” value in series [5] (listed as paclitaxel) is “No metastatic tumors were found”.

For the compound `Cc1c(C=C2C(=O)NC(=O)NC2=O)c2ccccc2n1CCOc1ccc(Cl)cc1Cl` [NY-11], the IC50 came to 16.6 µM in series [1], 23.2 µM in series [3] and 90.1 µM in series [4]. Also, in series [2], the “IC50 HCT116” value is “-”.

As for `Cc1c(C=C2C(=O)NC(=O)NC2=O)c2ccccc2n1CCOc1cccc(C(F)(F)F)c1` [NY-8], the IC50 was 10.3 µM in series [1] and 38.1 µM in series [3]. For the same compound, the “IC50 HCT116” value in series [2] is listed as “-”. For the same compound, in series [4], the “IC50 HepG2” value is “-”.

Turning to `O=C1NC(=O)C(=Cc2cn(CCOc3cccc4ccccc34)c3ccccc23)C(=O)N1` [NY-15], the IC50 was determined as 21.4 µM in series [1], 11.3 µM in series [2], 124 µM in series [3] and 13.5 µM in series [4].

Regarding `O=C1NC(=O)C(=Cc2cn(CCOc3ccc(Cl)cc3Cl)c3ccccc23)C(=O)N1` [NY-12], the IC50 worked out at 40.4 µM in series [1] and 20 µM in series [2]. The “IC50 LoVo” value in series [3] was “-”. The “IC50 HepG2” value in series [4] is “-”.

For `Cc1c(C=C2C(=O)NC(=O)NC2=O)c2ccccc2n1CCOc1cccc(F)c1` [NY-5], the half-inhibitory concentration (IC50) in series [1] came out at 34 µM; in series [2], 11.4 µM; in series [3] it was 23.5 µM; in series [4], 37.2 µM.

As for `Cc1c(C=C2C(=O)NC(=S)NC2=O)c2ccccc2n1CCOc1ccc(Cl)cc1Cl` [NY-10], the IC50 is 23.3 µM in series [1], 26 µM in series [2], 86.4 µM in series [3] and 66.7 µM in series [4].

Take `Cc1c(C=C2C(=O)NC(=S)NC2=O)c2ccccc2n1CCOc1cccc(F)c1` [NY-4]: the IC50 in series [1] worked out at 25.4 µM; in series [2], 27.5 µM; in series [3] it was 41.8 µM. Moreover, the “IC50 HepG2” value in series [4] was “-”.

`Cc1ccc(OCCn2c(C)c(C=C3C(=O)NC(=O)NC3=O)c3ccccc32)c(C)c1` [NY-1]: the “IC50 T47D” value in series [1] is reported as “-”. In series [2], the “IC50 HCT116” value is “-”. Also, the “IC50 LoVo” value in series [3] is on record as “-”. In series [4], this compound yielded an IC50 of 26.2 µM.

As to `Cc1c(C=C2C(=O)NC(=O)NC2=O)c2ccccc2n1CCOc1cccc2ccccc12` [NY-14], the IC50 in series [1] amounted to 74.3 µM. Besides, the “IC50 HCT116” value in series [2] was “-”. The “IC50 LoVo” value in series [3] is “-”. In addition, the “IC50 HepG2” value in series [4] is “-”.

Consider `Cc1c(C=C2C(=O)NC(=S)NC2=O)c2ccccc2n1CCOc1cccc2ccccc12` [NY-13], for which the IC50 stood at 5.15 µM in series [1], 12.8 µM in series [2], 43.2 µM in series [3] and 33.1 µM in series [4].

As for `Cc1c(C=C2C(=O)NC(=O)NC2=O)c2ccccc2n1CCOc1ccc(F)cc1` [NY-3], the “IC50 T47D” value in series [1] is “-”. In addition, the IC50 in series [2] was found to be 43.7 µM; in series [3], 21.4 µM. Further, the “IC50 HepG2” value in series [4] is on record as “-”.
